According to paper PMC8279416, “Structural Fine-Tuning of Desmuramylpeptide NOD2 Agonists Defines Their In Vivo Adjuvant Activity” (Journal of Medicinal Chemistry, 2021):

Key:
human PBMCs = assay: Cytokine release from peripheral blood mononuclear cells (cytometric bead array); type: cell-based; conditions: 2 μM, 18 h, without LPS
Method: The immunostimulatory effects of the selected desmuramylpeptides were evaluated using human primary peripheral blood mononuclear cells (PBMCs). This heterogeneous mixture of immune cells allowed the study of the effects of these NOD2 agonists in a physiologically relevant system, where other NOD2-interacting and downstream signaling proteins were present. The effects of desmuramylpeptides were first determined for the secreted cytokine profile using a cytometric bead array cytokine kit. Moreover, considering that activation of NOD2 is also an important amplification signal for Toll-like receptor (TLR)-induced inflammatory responses,[79]−[81] we also examined the effects on cytokine secretion of the combination of desmuramylpeptides with LPS, a well-known TLR4 agonist.
In line with previous studies, the effects of MDP and the desmuramylpeptides were most pronounced for the induction of the chemokine IL-8.[82]
Peripheral blood mononuclear cells were seeded (1 × 10^6 cells/mL) in 48-well plates in 500 μL of growth medium and treated with the compounds (2 μM) or with the corresponding vehicle (0.1% DMSO) in the absence and presence of LPS (10 ng/mL). Cell-free supernatants were collected after 18 h of incubation (37 °C, 5% CO2) and stored at −80 °C until tested. Cytokine production was determined with the BD Cytometric Bead Array Human Inflammatory Cytokines Kit (contents: IL-8, IL-1β, IL-6, IL-10, TNF, IL-12p70; BD Bioscience) on an Attune NxT flow cytometer (Thermo Fisher Scientific, Waltham, MA, U.S.A.). Standard curves were generated using recombinant cytokines contained in the kit. The data were analyzed using the FlowJo (Tree Star, Inc., Ashland, OR, U.S.A.) and Prism (GraphPad, San Diego, CA, U.S.A.) software. The experiments were repeated as four independent biological replicates. Statistical significance was determined by repeated measures one-way ANOVA followed with Dunnett’s multiple comparisons test.

NIH/OlaHsd mice = assay: In vivo ovalbumin-specific antibody response, first experiment (neutral liposomes); design: species or system mouse; conditions: for Log10 (anti-OVA IgG1/anti-OVA IgG2a): first in vivo experiment, one week after the booster dose, mean ± SEM of 5 mice; for Boost in the elicited ovalbumin-specific IgG response: vs liposomes without adjuvant
Method: To determine whether enhanced antigen presentation in vitro is correlated to in vivo adjuvant activities, an immunization study was performed in a murine model of adjuvanticity. Specifically, the selected desmuramylpeptides were investigated for induction of systemic immune responses against the model antigen ovalbumin. Seven groups of NIH/OlaHsd mice were immunized with ovalbumin-containing neutral liposomes, either alone or with additional adjuvants of MDP or the desmuramylpeptides 1, 68, 74, 75, or 81. After immunization and one booster dose, the mice sera were collected and assayed for ovalbumin-specific IgG antibodies (Figure 10).
Multilamellar liposomes were prepared by the modified thin lipid film method as described previously.[130],[131] For the preparation of neutral liposomes, a 7:5 molar ratio of egg-phosphatidylcholine and cholesterol was used. For the preparation of negatively charged liposomes, a 7:5:1 molar ratio of egg-phosphatidylcholine, cholesterol, and dicetylphosphate was used, while a 7:5:0.5 molar ratio of egg-phosphatidylcholine, cholesterol, and Man-PEG-Pam was used in the preparation of mannosylated liposomes. Lipids (total lipid concentration, 4 mg/mL) were dissolved in chloroform/methanol (2:1). A methanol or chloroform/methanol solution of MDP or the desmuramylpeptides was added to the lipid solution for a final concentration of 2 mM and 1.5 mM for the first (Figure 10) and second (Figure 11) experiments, respectively. After rotary evaporation of the solvent, the remaining lipid film was dried in vacuum for 1 h and then dispersed by gentle handshaking in an ovalbumin solution in saline (0.0667 and 0.1 mg/mL for the first and second experiments, respectively). This was then left overnight at 4 °C to swell and stabilize. Liposome size was reduced by sonification. Nonentrapped material was not separated from liposomes, and the complete liposome suspension was used for immunizations.
For the first experiment (Figure 10), sex-matched NIH/OlaHsd mice (five per group) were immunized subcutaneously in the tail base and boosted one time after 21 days. The injection volume in all experimental groups was 0.15 mL per mouse, which corresponds to 10 μg of OVA, […], and 0.30 μmol of MDP and desmuramylpeptides. For the second experiment (Figure 11), sex-matched NIH/OlaHsd mice (five per group) were immunized and boosted two times subcutaneously into the tail base at 21-day intervals. The injection volume in all experimental groups was 0.1 mL per mouse, which corresponds to 10 μg of OVA, 400 μg of lipids, and 0.15 μmol of MDP and 75. The mice were anesthetized with ip application of ketamine/xylazine (25 mg/kg each) prior to blood collection from the axillary plexus on the seventh day after the last booster dose. Individual serum from each animal was decomplemented at 56 °C for 30 min and then stored at −20 °C until tested.
ELISA assays were performed as detailed previously.[46] Briefly, high-binding ELISA plates (Costar, U.S.A.) were coated with a 15 μg/mL solution of ovalbumin in carbonate buffer, pH 9.6, and incubated overnight at room temperature. Nonspecific antibody binding was blocked with 0.5% w/v bovine serum albumin in PBS-T (0.05% (v/v) Tween 20 in phosphate-buffered saline) for 2 h at 37 °C. After washing, five serial dilutions of mice sera and standard preparations were added in duplicate. Plates were incubated overnight at room temperature, washed, and analyzed for ovalbumin-specific IgG levels by incubation with HRP-conjugated goat anti-mouse IgG (2 h at 37 °C) and then, after washing, with 0.6 mg/mL o-phenylenediaminedihydrochloride solution in citrate-phosphate buffer, pH 5.0, with 0.5 μL of 30% H2O2 per milliliter for 30 min at room temperature in the dark. The enzymatic reaction was stopped with 12.5% H2SO4, and absorbance at 492 nm was measured using a microplate reader (Thermo Fisher Scientific, Waltham, MA, U.S.A.). […]

[1] = neutral liposomes, 0.30 μmol adjuvant per dose, 1 week after booster
[2] = neutral liposomes, 0.30 μmol adjuvant per dose, s.c., 1 week after booster

Structure (SMILES)	Induction of cytokines IL-1β, IL-6, IL-8 and TNF-α, compound alone (human PBMCs)	Log10 (anti-OVA IgG1/anti-OVA IgG2a) (NIH/OlaHsd mice)	Ovalbumin-specific IgG2a response (in words) (NIH/OlaHsd mice; [1])	Adjuvant activity: ovalbumin-specific IgG (in words) (NIH/OlaHsd mice; [2])	Ovalbumin-specific IgG1 response (in words) (NIH/OlaHsd mice; [1])	Boost in the elicited ovalbumin-specific IgG response (NIH/OlaHsd mice; [2]) [fold]
COc1cc(/C=C/C(=O)NCC(=O)N[C@H](C(=O)N[C@H](CCC(=O)OC2CCCC2)C(=O)OC2CCCC2)C(C)C)ccc1O [Compound 68, Dicyclopentyl ((E)-3-(4-Hydroxy-3-methoxyphenyl)acryloyl)glycyl-L-valyl-D-glutamate]	induced small increases in the levels of all four of these cytokines	2.28 ± 0.13	slight suppression of the IgG2a response	devoid of adjuvant activity		
CCCCCCCCCCCCCCCCCC(=O)Oc1ccc(/C=C/C(=O)NCC(=O)N[C@H](C(=O)N[C@H](CCC(=O)OCC)C(=O)OCC)[C@@H](C)O)cc1OC [Compound 81, Diethyl ((E)-3-(3-Methoxy-4-(stearoyloxy)phenyl)acryloyl)glycyl-L-threonyl-D-glutamate]	induced lower responses	2.18 ± 0.24			largely IgG1-based response	3
CCCCCCCCCCCCCCCCCC(=O)Oc1ccc(/C=C/C(=O)NCC(=O)N[C@H](C(=O)N[C@H](CCC(=O)OCC)C(=O)OCC)C(C)C)cc1OC [Compound 75, Diethyl ((E)-3-(3-Methoxy-4-(stearoyloxy)phenyl)acryloyl)glycyl-L-valyl-D-glutamate]	induced lower responses	2.07 ± 0.17	highest levels of IgG2a antibodies		significantly enhanced	5
